Like-named read-outs stand apart in the source and are kept apart here.
Biological target: Nav 1.7 (Homo sapiens (Human), UniProt Q15858)
Test: Nav 1.7 in vitro PX assay (PatchXpress whole cell voltage clamp);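 further: holding potential set for 20 to 50% inactivation, sodium current evoked by a 20 ms step to −10 mV, peak current inhibition read after compound exposure, 3–5 cells per concentration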
Assay type: cell-based
[1] = HEK 293 cells stably transfected with human Nav1.7, PatchXpress, partially inactivated state

Nav 1.7, sequence (Q15858 whole entry): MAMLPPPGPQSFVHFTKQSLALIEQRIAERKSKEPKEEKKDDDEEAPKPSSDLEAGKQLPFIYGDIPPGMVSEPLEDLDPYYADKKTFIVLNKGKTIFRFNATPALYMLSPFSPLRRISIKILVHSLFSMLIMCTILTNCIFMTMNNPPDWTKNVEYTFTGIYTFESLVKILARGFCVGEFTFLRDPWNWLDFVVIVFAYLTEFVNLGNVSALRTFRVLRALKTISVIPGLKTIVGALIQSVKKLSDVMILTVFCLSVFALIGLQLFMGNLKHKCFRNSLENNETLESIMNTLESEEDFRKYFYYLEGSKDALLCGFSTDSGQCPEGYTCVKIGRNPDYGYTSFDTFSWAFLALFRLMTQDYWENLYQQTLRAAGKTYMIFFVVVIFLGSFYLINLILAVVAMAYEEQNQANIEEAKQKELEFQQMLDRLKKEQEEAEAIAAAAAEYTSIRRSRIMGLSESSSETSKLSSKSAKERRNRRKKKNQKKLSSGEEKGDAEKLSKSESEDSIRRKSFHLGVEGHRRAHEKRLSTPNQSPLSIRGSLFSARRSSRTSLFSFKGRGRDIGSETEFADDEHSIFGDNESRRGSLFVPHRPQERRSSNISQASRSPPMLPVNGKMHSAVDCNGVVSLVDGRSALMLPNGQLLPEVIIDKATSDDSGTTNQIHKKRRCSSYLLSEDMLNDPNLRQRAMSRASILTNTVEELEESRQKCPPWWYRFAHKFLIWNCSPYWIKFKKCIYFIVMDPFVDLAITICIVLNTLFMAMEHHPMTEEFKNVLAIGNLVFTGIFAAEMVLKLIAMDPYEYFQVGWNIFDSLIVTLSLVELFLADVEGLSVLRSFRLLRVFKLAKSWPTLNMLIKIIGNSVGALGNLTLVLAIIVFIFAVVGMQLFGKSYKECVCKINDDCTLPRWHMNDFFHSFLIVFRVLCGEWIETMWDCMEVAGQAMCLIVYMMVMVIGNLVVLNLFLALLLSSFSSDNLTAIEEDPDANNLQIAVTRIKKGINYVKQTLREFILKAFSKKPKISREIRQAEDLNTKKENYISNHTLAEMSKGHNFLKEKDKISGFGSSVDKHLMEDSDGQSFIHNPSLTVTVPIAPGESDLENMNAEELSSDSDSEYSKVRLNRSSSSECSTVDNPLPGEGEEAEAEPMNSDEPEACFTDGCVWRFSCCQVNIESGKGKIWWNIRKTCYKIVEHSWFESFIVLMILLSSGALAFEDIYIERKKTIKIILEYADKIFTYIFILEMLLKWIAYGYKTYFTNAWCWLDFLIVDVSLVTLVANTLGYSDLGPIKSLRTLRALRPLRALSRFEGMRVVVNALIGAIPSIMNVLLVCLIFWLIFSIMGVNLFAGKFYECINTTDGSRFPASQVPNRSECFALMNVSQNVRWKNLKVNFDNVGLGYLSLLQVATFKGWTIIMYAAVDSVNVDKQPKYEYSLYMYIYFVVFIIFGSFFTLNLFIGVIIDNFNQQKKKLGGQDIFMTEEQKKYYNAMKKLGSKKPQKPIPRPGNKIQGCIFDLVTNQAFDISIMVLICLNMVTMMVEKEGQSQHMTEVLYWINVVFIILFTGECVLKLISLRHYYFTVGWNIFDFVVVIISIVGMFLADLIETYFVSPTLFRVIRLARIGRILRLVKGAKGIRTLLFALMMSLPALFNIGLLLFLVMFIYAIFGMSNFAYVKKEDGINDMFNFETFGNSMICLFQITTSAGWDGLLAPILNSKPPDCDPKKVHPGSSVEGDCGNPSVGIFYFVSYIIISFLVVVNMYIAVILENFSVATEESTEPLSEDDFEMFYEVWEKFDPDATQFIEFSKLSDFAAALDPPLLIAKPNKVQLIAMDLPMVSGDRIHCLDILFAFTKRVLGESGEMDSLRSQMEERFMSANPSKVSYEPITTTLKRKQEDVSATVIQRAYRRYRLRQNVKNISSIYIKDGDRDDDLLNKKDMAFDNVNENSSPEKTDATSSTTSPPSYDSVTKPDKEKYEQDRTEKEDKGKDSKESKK

COc1cc(-c2cccc(F)c2)c(Cl)cc1-c1c(C)ncc2cc(S(=O)(=O)Nc3ccon3)ccc12 (atropisomer, axis not shown; (M)) [Example 317, (M)-4-(2-chloro-3′-fluoro-5-methoxy-4-biphenylyl)-N-3-isoxazolyl-3-methyl-7-isoquinolinesulfonamide]
IC50 [1]: 72 nM

COc1cc(-c2cccc(F)c2)c(Cl)cc1-c1c(C)cnc2cc(S(=O)(=O)Nc3ccon3)ccc12 (atropisomer, axis not shown; (M)) [Example 330, (M)-4-(2-chloro-3′-fluoro-5-methoxy-[1,1′-biphenyl]-4-yl)-N-(isoxazol-3-yl)-3-methylquinoline-7-sulfonamide]
IC50 [1]: 496 nM

CCc1cnc2cc(S(=O)(=O)Nc3ccon3)ccc2c1-c1cc(Cl)c(-c2cccc(F)c2)cc1OC (atropisomer, axis not shown; (M)) [Example 332, (M)-4-(2-chloro-3′-fluoro-5-methoxy-[1,1′-biphenyl]-4-yl)-3-ethyl-N-(isoxazol-3-yl)quinoline-7-sulfonamide]
IC50 [1]: 33700 nM

COc1cc(-c2cccc(F)c2)c(Cl)cc1-c1c(C#N)cnc2cc(S(=O)(=O)Nc3ccon3)ccc12 (atropisomer, axis not shown; (M)) [Example 334, (M)-4-(2-chloro-3′-fluoro-5-methoxy-[1,1′-biphenyl]-4-yl)-3-cyano-N-(isoxazol-3-yl)quinoline-7-sulfonamide]
IC50 [1]: 101 nM

COc1cc(-c2cccc(F)c2)c(Cl)cc1-c1c(O)cnc2cc(S(=O)(=O)Nc3ccon3)ccc12 (atropisomer, axis not shown; (M)) [Example 337, (M)-4-(2-chloro-3′-fluoro-5-methoxy-[1,1′-biphenyl]-4-yl)-3-hydroxy-N-(isoxazol-3-yl)quinoline-7-sulfonamide]
IC50 [1]: 71 nM

COc1cc(-c2cccc(F)c2)c(Cl)cc1-c1c(OC)cnc2cc(S(=O)(=O)Nc3ccon3)ccc12 (atropisomer, axis not shown; (M)) [Example 339, (M)-4-(2-chloro-3′-fluoro-5-methoxy-[1,1′-biphenyl]-4-yl)-N-(isoxazol-3-yl)-3-methoxyquinoline-7-sulfonamide]
IC50 [1]: 630 nM

COc1cc(-c2cccc(F)c2)c(Cl)cc1-c1c(C)nnc2cc(S(=O)(=O)Nc3ccon3)ccc12 (atropisomer, axis not shown; (M)) [Example 441, (M)-4-(2-chloro-3′-fluoro-5-methoxy-[1,1′-biphenyl]-4-yl)-N-(isoxazol-3-yl)-3-methylcinnoline-7-sulfonamide]
IC50 [1]: 52 nM

CCc1nnc2cc(S(=O)(=O)Nc3ccon3)ccc2c1-c1cc(Cl)c(-c2cccc(F)c2)cc1OC (atropisomer, axis not shown; (M)) [Example 443, (M)-4-(2-chloro-3′-fluoro-5-methoxy-[1,1′-biphenyl]-4-yl)-3-ethyl-N-(isoxazol-3-yl)cinnoline-7-sulfonamide]
IC50 [1]: 87 nM

COc1cc(-c2cccc(C(F)(F)F)c2)c(F)cc1-c1c2ccc(S(=O)(=O)Nc3ccon3)cc2cc(=O)n1C (atropisomer, axis not shown; (M)) [Example 552, (M)-1-(2-fluoro-5-methoxy-3′-(trifluoromethyl)-4-biphenylyl)-N-3-isoxazolyl-2-methyl-3-oxo-2,3-dihydro-6-isoquinolinesulfonamide]
IC50 [1]: 1250 nM

COc1cc(-c2cccc(F)c2)c(Cl)cc1-c1c(C)ncc2cc(S(=O)(=O)Nc3ccon3)ccc12 (atropisomer, axis not shown; (P)) [Example 318, (P)-4-(2-chloro-3′-fluoro-5-methoxy-4-biphenylyl)-N-3-isoxazolyl-3-methyl-7-isoquinolinesulfonamide]
IC50 [1]: 1390 nM

COc1cc(-c2cccc(F)c2)c(Cl)cc1-c1c(C)cnc2cc(S(=O)(=O)Nc3ccon3)ccc12 (atropisomer, axis not shown; (P)) [Example 331, (P)-4-(2-chloro-3′-fluoro-5-methoxy-[1,1′-biphenyl]-4-yl)-N-(isoxazol-3-yl)-3-methylquinoline-7-sulfonamide]
IC50 [1]: 10500 nM

CCc1cnc2cc(S(=O)(=O)Nc3ccon3)ccc2c1-c1cc(Cl)c(-c2cccc(F)c2)cc1OC (atropisomer, axis not shown; (P)) [Example 333, (P)-4-(2-chloro-3′-fluoro-5-methoxy-[1,1′-biphenyl]-4-yl)-3-ethyl-N-(isoxazol-3-yl)quinoline-7-sulfonamide]
IC50 [1]: 591 nM

COc1cc(-c2cccc(F)c2)c(Cl)cc1-c1c(C#N)cnc2cc(S(=O)(=O)Nc3ccon3)ccc12 (atropisomer, axis not shown; (P)) [Example 335, (P)-4-(2-chloro-3′-fluoro-5-methoxy-[1,1′-biphenyl]-4-yl)-3-cyano-N-(isoxazol-3-yl)quinoline-7-sulfonamide]
IC50 [1]: 112 nM

COc1cc(-c2cccc(F)c2)c(Cl)cc1-c1c(O)cnc2cc(S(=O)(=O)Nc3ccon3)ccc12 (atropisomer, axis not shown; (P)) [Example 338, (P)-4-(2-chloro-3′-fluoro-5-methoxy-[1,1′-biphenyl]-4-yl)-3-hydroxy-N-(isoxazol-3-yl)quinoline-7-sulfonamide]
IC50 [1]: 41 nM

COc1cc(-c2cccc(F)c2)c(Cl)cc1-c1c(OC)cnc2cc(S(=O)(=O)Nc3ccon3)ccc12 (atropisomer, axis not shown; (P)) [Example 340, (P)-4-(2-chloro-3′-fluoro-5-methoxy-[1,1′-biphenyl]-4-yl)-N-(isoxazol-3-yl)-3-methoxyquinoline-7-sulfonamide]
IC50 [1]: 84 nM

COc1cc(-c2cccc(F)c2)c(Cl)cc1-c1c(C)nnc2cc(S(=O)(=O)Nc3ccon3)ccc12 (atropisomer, axis not shown; (P)) [Example 442, (P)-4-(2-chloro-3′-fluoro-5-methoxy-[1,1′-biphenyl]-4-yl)-N-(isoxazol-3-yl)-3-methylcinnoline-7-sulfonamide]
IC50 [1]: 251 nM

CCc1nnc2cc(S(=O)(=O)Nc3ccon3)ccc2c1-c1cc(Cl)c(-c2cccc(F)c2)cc1OC (atropisomer, axis not shown; (P)) [Example 444, (P)-4-(2-chloro-3′-fluoro-5-methoxy-[1,1′-biphenyl]-4-yl)-3-ethyl-N-(isoxazol-3-yl)cinnoline-7-sulfonamide]
IC50 [1]: 1160 nM

COc1cc(-c2cccc(C(F)(F)F)c2)c(F)cc1-c1c2ccc(S(=O)(=O)Nc3ccon3)cc2cc(=O)n1C (atropisomer, axis not shown; (P)) [Example 551, (P)-1-(2-fluoro-5-methoxy-3′-(trifluoromethyl)-4-biphenylyl)-N-3-isoxazolyl-2-methyl-3-oxo-2,3-dihydro-6-isoquinolinesulfonamide]
IC50 [1]: 28 nM

COc1cc(C(F)(F)F)ccc1C1c2ccc(S(=O)(=O)Nc3ncns3)cc2CCN1C(C)=O (centres unmarked) [Example 51, 2-ACETYL-1-(2-METHOXY-4-(TRIFLUOROMETHYL)PHENYL)-N-(1,2,4-THIADIAZOL-5-YL)-1,2,3,4-TETRAHYDROISOQUINOLINE-6-SULFONAMIDE]
IC50: 225 nM

COc1cc(-c2cccc(F)c2)ccc1[C@@H]1c2ccc(S(=O)(=O)Nc3ccon3)cc2CCN1C(C)=O [Example 53-A, (S)-2-ACETYL-1-(3′-FLUORO-3-METHOXY-[1,1′-BIPHENYL]-4-YL)-N-(ISOXAZOL-3-YL)-1,2,3,4-TETRAHYDROISOQUINOLINE-6-SULFONAMIDE]
IC50 (PatchXpress (PX)): 1090 nM

— US9776995B2, “Bicyclic sulfonamide compounds as sodium channel inhibitors” (AMGEN INC., priority 2013, dated 2017)
